Assays:
HIV [1] = experiment: Anti-HIV activity (MT-4 cells, MTT); assay type: cell-based; details: Human immunodeficiency virus 1, MT4, 96 h, cultured 4 days
In short: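 MT-4 cells (2.5×10^5 cells/mL) mixed with serial dilutions of test sample and HIV, cultured 4 days in CO2 incubator. MTT added for 1 h, cells lysed, absorbance read at 560 nm and 690 nm.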

[2] = tested on: HIV mutant strain 1 (E138K/G140S/Q148H/N155H); experiment: Resistance evaluation test (HeLa-CD4 reporter), mutant strain 1; assay type: cell-based; details: FC=EC50 of mutant strain/EC50 of wild strain, HeLa-CD4 cells
Description: (§1) Serial dilutions of a test sample were prepared in a96-well microplate (50 μL/well). 2.5×10^5 cells/mL of a HeLa-CD4 cell suspension was dispensed at 100 μL/well to the plate containing the test sample. Then, an HIV virus solution (wild strain and mutant strain) was dispensed at 50 μL/well. The plate was mixed with a plate mixer and cultured for 3 days in a CO2 incubator. The culture supernatant in each well was removed by suction. A cell lysis buffer in a reporter assay kit was dispensed at 100 μL/well, and the plate was frozen in a freezer (−80° C.). The plate frozen in a freezer was thawed at room temperature, then mixed with a plate mixer, and centrifuged at 1,200 rpm for 5 minutes. The supernatant of each well was dispensed at 20 μL/well to a 96-well microplate (BLACK). A chemiluminescent reagent in the reporter assay kit was dispensed at 100 μL/well and reacted at room temperature for approximately 1 hour. Then, luminescence intensity was measured using MicroBeta TRILUX. […] FC=EC50 of mutant strain/EC50 of wild strain (Results) FC for the mutant strain 1 (E138K/G140S/Q148H/N155H) and FC for the mutant strain 2 (E92Q/E138T/G140S/Q148H) are shown in the table.

[3] = tested on: HIV mutant strain 2 (E92Q/E138T/G140S/Q148H); experiment: Resistance evaluation test (HeLa-CD4 reporter), mutant strain 2; assay type: cell-based; details: FC=EC50 of mutant strain/EC50 of wild strain, HeLa-CD4 cells
Description: as §1

Metabolic stability test = assay type: in vitro ADME, human; parameters: key: % remaining vs amount at 0 min (=100%); details: compound 0.5 μmol/L, human liver microsomes 0.5 mg protein/mL, NADPH, 37° C., 30 minutes; amount at 0 minutes defined as 100%
Description: Commercially available pooled human liver microsomes were reacted with the compound of the present invention for a certain time. A residual rate was calculated by the comparison between the reacted sample and an unreacted sample to evaluate the degree at which the compound of the present invention is metabolized in the liver. A reaction was performed (oxidative reaction) at 37° C. for 0 minutes or 30 minutes in the presence of 1 mmol/L NADPH in 0.2 mL of a buffer (50 mmol/L Tris-HCl pH 7.4, 150 mmol/L potassium chloride, 10 mmol/L magnesium chloride) containing 0.5 mg protein/mL of human liver microsomes. After the reaction, 50 μL of the reaction solution was added to 100 μL of a solution of methanol/acetonitrile=1/1 (v/v) and mixed, and the mixture was centrifuged at 3000 rpm for 15 minutes. The compound of the present invention in the centrifugation supernatant was quantified by LC/MS/MS or solid-phase extraction (SPE)/MS. The amount of the compound of the present invention remaining after the reaction was calculated with the amount of the compound at 0 minutes of the reaction defined as 100%.

HIV [4] = experiment: Anti-HIV activity evaluation test using PBMC of healthy humans; assay type: cell-based; details: Human immunodeficiency virus 1, 96 h, read-out: 90% HIV inhibitory concentration (EC90); PHA-stimulated PBMC, 4 days, reverse transcriptase activity
Description: Serial dilutions of a test sample were prepared in a 96-well microplate (50 μL/well). 1.0×10^5/well of PBMC stimulated with Phytohemagglutinin (PHA) and an HIV viral solution were mixed in the required number of wells and the mixture was reacted at 37° C. for 1 hour. After the reaction, the cell suspension was centrifuged and the supernatant was discarded, and the infected cells were dispersed in the culture medium in the required number of wells at 150 μL/well. The obtained medium was dispensed at 150 μL/well to a 96-well microplate containing the test sample. The plate was mixed with a plate mixer and cultured for 4 days in a CO2 incubator. The reverse transcriptase activity in the culture medium was measured.

HIV [5] = experiment: Anti-HIV activity evaluation test in the presence of human serum protein (MT-4 cells); assay type: cell-based; details: PS=4×(EC50 in 25% human serum protein/EC50 in absence), 100% extrapolation value
Description: Serial dilutions of a test sample were prepared in a 96-well microplate (50 μL/well). A human serum protein solution (50% human serum protein concentration) was dispensed at 100 μL/well into a 96-well microplate containing the test sample, and allowed to be left still at room temperature for 1 hour. For the plate of serum absence, the culture medium was dispensed at 100 μL/well. 3.0×10^5/well of MT-4 cells and 3 μL/well of an HIV viral solution were mixed in an amount of the required number of wells, and the mixture was reacted at 37° C. for 1 hour. After the reaction, the cell suspension was centrifuged and the supernatant was discarded, and the infected cells were dispersed in the culture medium in an amount of the required number of wells at 50 μL/well, and dispensed at 50 μL/well to a 96-well microplate containing the test sample and human serum protein (final concentration of the human serum protein: 25%). The plate was mixed with a plate mixer and cultured for 4 days in a CO2 incubator. An MTT (3-(4,5-dimethylthiazol-2-yl)-2,5-diphenyltetrazolium bromide) solution was dispensed at 30 μL/well. The plate was reacted for 1 hour in a CO2 incubator. 150 μL of the supernatant was removed from each well so as not to take up the cells. […] The absorbance of the mixed plate was measured at two wavelengths of 560 nm and 690 nm using a microplate reader. […]

[6] = biological target: Voltage gated sodium channel (Nav 1.5 channel) (Homo sapiens, UniProt Q14524); details: pH 7.4
Description: For the purpose of assessing risk of arrhythmogenesis of the compound of the present invention, effects of the compound of the present invention on Na^+ current (INa), which plays an important role in the depolarization process of myocardium, was studied using HEK cells expressing Voltage gated sodium channel (Nav 1.5 channel) encoded by SCN5A gene. A cell is retained at a membrane potential of −100 mV by the whole cell patch clamp method using an automated patch clamp system (QPatch; Sophion Bioscience A/S), then INa induced by depolarization stimulation at −10 mV for 20 milliseconds, was recorded. […] From the obtained INa, an absolute value of the maximum peak current was measured based on the current value at the resting membrane potential using analysis software (QPatch Assay software; Sophion Bioscience A/S). The maximum peak current at the time of the application of the compound of the present invention with respect to the maximum peak current at the time of the application of the vehicle was further calculated to evaluate the influence of the compound of the present invention on INa.

[7] = tested on: HIV mutant strain 3 (E92Q/E138K/G140S/Q148H); experiment: Resistance evaluation test (HeLa-CD4 reporter), mutant strain 3; assay type: cell-based; details: FC=EC50 of mutant strain/EC50 of wild strain, HeLa-CD4 cells
Description: as §1

[8] = tested on: HIV mutant strain (T97A/E138T/G140S/Q148H); experiment: Resistance evaluation test (HeLa-CD4 reporter), mutant strain T97A/E138T/G140S/Q148H; assay type: cell-based; details: FC=EC50 of mutant strain/EC50 of wild strain; HeLa-CD4 cells
[9] = Clearance evaluation test; assay type: in vivo; details: rat, plasma, 1 umol/kg, rats, intravenous 1 μmol/kg
Text: Experimental Material and Method (1) Animals used: rats were used. (2) Rearing conditions: the rats were allowed to freely take solid feed and sterilized tap water. (3) Dose and grouping setting: a predetermined dose was intravenously administered. Groups were set as follows: Intravenous administration: 1 μmol/kg (n=2) (4) Preparation of dosing solution: the test sample was solubilized using a solvent of dimethyl sulfoxide/propylene glycol=1/1 and administered. (5) Administration method: the test sample was administered to the tail vein through a syringe with an injection needle. (6) Evaluation item: blood was collected over time, and the concentration of the compound of the present invention in plasma was measured using LC/MS/MS. (7) Statistical analysis: total body clearance (CLtot) and elimination half-life (t½) were calculated as to change in the concentration of the compound of the present invention in plasma by the moment analysis method.

Chain of Voltage gated sodium channel (Nav 1.5 channel) (Q14524 whole entry): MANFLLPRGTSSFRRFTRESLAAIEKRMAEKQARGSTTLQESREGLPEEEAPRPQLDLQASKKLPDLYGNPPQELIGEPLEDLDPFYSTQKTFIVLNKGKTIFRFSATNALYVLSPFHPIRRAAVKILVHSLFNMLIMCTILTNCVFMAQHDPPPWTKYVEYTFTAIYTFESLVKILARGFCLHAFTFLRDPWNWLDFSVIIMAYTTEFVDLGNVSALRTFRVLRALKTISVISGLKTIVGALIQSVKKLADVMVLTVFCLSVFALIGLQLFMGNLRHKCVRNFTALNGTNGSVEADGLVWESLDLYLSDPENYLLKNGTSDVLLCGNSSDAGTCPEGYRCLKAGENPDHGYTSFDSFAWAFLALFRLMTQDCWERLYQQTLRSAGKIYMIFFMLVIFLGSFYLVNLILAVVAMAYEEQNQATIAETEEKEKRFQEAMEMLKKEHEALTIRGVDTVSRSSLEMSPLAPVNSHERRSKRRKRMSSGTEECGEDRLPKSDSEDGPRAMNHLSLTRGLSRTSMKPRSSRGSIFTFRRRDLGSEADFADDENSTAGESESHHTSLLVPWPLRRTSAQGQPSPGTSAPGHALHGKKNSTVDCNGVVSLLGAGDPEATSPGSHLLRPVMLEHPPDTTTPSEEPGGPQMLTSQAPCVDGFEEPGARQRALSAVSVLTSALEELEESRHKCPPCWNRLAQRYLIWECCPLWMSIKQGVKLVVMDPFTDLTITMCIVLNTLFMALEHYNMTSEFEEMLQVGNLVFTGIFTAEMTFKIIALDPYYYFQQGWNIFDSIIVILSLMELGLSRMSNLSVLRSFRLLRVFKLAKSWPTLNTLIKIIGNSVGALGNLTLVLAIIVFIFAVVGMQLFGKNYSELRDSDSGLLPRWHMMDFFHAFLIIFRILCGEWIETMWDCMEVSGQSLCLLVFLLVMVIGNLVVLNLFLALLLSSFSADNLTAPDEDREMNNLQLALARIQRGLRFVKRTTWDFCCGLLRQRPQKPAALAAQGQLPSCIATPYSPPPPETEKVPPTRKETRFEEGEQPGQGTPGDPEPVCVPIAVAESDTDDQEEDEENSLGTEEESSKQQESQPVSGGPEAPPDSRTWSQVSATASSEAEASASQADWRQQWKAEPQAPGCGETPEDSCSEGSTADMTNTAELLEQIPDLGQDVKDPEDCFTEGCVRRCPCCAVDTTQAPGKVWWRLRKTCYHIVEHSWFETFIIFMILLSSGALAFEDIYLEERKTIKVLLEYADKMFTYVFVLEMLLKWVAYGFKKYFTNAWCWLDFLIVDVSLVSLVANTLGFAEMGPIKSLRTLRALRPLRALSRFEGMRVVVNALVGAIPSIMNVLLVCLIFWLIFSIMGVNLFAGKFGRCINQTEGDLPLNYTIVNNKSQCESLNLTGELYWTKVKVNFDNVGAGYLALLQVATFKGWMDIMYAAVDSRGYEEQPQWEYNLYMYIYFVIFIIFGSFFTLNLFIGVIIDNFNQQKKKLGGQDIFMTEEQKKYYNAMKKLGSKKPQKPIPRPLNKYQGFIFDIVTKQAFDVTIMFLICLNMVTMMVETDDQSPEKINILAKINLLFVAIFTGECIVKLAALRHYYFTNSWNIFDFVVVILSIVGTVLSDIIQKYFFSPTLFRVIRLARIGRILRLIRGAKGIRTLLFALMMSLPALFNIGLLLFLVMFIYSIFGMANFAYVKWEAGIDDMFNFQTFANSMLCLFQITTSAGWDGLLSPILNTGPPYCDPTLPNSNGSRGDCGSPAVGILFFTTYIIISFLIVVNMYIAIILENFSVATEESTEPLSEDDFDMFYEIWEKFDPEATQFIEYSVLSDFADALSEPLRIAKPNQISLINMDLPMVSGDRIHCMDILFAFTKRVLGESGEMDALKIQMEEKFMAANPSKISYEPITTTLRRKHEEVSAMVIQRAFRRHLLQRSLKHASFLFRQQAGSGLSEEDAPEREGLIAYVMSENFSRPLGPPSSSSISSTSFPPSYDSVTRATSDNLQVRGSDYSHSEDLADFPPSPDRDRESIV

SMILES	EC50 (HIV [1])	FC mutant strain 1 [2]	FC mutant strain 2 [3]	residual rate (Metabolic stability test)	EC90 (HIV [4])	Potency shift (PS) (HIV [5])	maximum peak current (INa) with compound with respect to vehicle [6]	FC for the mutant strain 3 [7]	FC for the mutant strain (T97A/E138T/G140S/Q148H) [8]	half-life ([9]; read-out: elimination half-life (t½) (converted))	clearance ([9]; read-out: total body clearance (CLtot))
CCN1C(=O)c2c(O)c(=O)c(C(=O)NCc3ccc(F)cc3F)cn2N2C[C@@H](C)C[C@@H]12 [II-051]	0.74 nM	19	21	96	3.3 nM	236	–	–	–	–	–
COC[C@@H]1CC[C@H]2N(C)C(=O)c3c(O)c(=O)c(C(=O)NCc4cccc(Cl)c4F)cn3N12 [II-031]	0.34 nM	10	6.9	86	0.73 nM	364	79%	–	–	–	–
CN1C(=O)c2c(O)c(=O)c(C(=O)NCc3ccc(F)cc3F)cn2N2CCCC[C@@H]12 [Compound I-015]	3.6 nM	51	18	103	–	–	92.1%	7.7	10	12.3 h	0.111 mL/min/kg

— patent US11649236B2, “Polycyclic carbamoylpyridone derivative” (Shionogi & Co., Ltd., priority 2018, dated 2023)
